# Laboratory results taken from patent publication US9302999B2, “Substituted triazoles as herbicides” (E. I. DU PONT DE NEMOURS AND COMPANY, priority 2012, dated 2016).
# How the values were obtained:
# [1] = system: cocklebur (common cocklebur, Xanthium strumarium); experiment: Test C pre-/postemergence: cocklebur; format: in vivo
# Outline: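 Visual injury scored 0–100 (100 = complete control) against untreated controls after 13–15 greenhouse days. Surfactant-containing solvent formulations applied either to soil after sowing (loam/sand) or over 1- to 4-leaf plants, 2–18 cm tall.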
# [2] = system: barley (winter barley, Hordeum vulgare); experiment: Test C postemergence: barley; format: in vivo
# Outline: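 Plants at the 1- to 4-leaf stage (2 to 18 cm tall), grown in pots of peat moss/vermiculite planting medium, received postemergence applications of the formulated test chemicals. After 13 to 15 days in a greenhouse, injury was scored visually versus controls from 0 (no effect) to 100 (complete control).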
# [3] = system: blackgrass (Alopecurus myosuroides); experiment: Test D pre-/postemergence: blackgrass; format: in vivo
# Outline: (§1)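 Scores run from 0 (no effect) to 100 (complete control), assigned by visual comparison with controls after 14 to 21 days in a controlled environment. Both preemergence application to silt loam and postemergence application to 1- to 4-leaf plants were tested.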
# [4] = system: wheat, spring (spring wheat, Triticum aestivum); experiment: Test D pre-/postemergence: wheat, spring; format: in vivo
# Outline: as §1
# Barnyardgrass [5] = experiment: Test C postemergence: barnyardgrass; format: in vivo, Echinochloa crus-galli
# Text: (§2) At the same time, plants selected from these crop and weed species and also barley (winter barley, Hordeum vulgare), canarygrass (Phalaris minor), chickweed (common chickweed, Stellaria media) windgrass (Apera spica-venti) and deadnettle (henbit deadnettle, Lamium amplexicaule) were planted in pots containing Redi-Earth® planting medium (Scotts Company, 14111 Scottslawn Road, Marysville, Ohio 43041) comprising spaghnum peat moss, vermiculite, wetting agent and starter nutrients and treated with postemergence applications of test chemicals formulated in the same manner. Plants ranged in height from 2 to 18 cm (1- to 4-leaf stage) for postemergence treatments.
# (§3) Treated plants and controls were maintained in a greenhouse for 13 to 15 days, after which time all species were compared to controls and visually evaluated. Plant response ratings, summarized in Table C, are based on a scale of 0 to 100 where 0 is no effect and 100 is complete control. A dash (-) response means no test result.
# Oilseed Rape = experiment: Test C postemergence: oilseed rape; format: in vivo
# Text: as §2, §3
# Barnyardgrass [6] = experiment: Test C preemergence: barnyardgrass; format: in vivo, Echinochloa crus-galli
# Text: Seeds of plant species selected from blackgrass (Alopecurus myosuroides), bromegrass, downy (downy bromegrass, Bromus tectorum), foxtail, green (green foxtail, Setaria viridis), ryegrass, Italian (Italian ryegrass, Lolium multiflorum), winter wheat (Triticum aestivum), wild oat (Avena fatua), galium (catchweed bedstraw, Galium aparine), bermudagrass (Cynodon dactylon), surinam grass (Brachiaria decumbens), cocklebur (common cocklebur, Xanthium strumarium), corn (Zea mays), large crabgrass (Digitaria sanguinalis), woolly cupgrass (Eriochloa villosa), foxtail, giant (giant foxtail, Setaria faberii), goosegrass (Eleusine indica), johnsongrass (Sorghum halepense), kochia (Kochia scoparia), lambsquarters (Chenopodium album), morningglory (Ipomoea coccinea), nightshade (eastern black nightshade, Solanum ptycanthum), nutsedge, yellow (yellow nutsedge, Cyperus esculentus), pigweed (Amaranthus retroflexus), ragweed (common ragweed, Ambrosia elation), soybean (Glycine max), common (oilseed) sunflower (Helianthus annuus), Russian thistle (Salsola kali) and velvetleaf (Abutilon theophrasti) were planted into a blend of loam soil and sand and treated preemergence with test chemicals formulated in a non-phytotoxic solvent mixture which included a surfactant.
# as §3
# [7] = Postemergence, 31 g ai/ha, scale 0 to 100 (0 no effect, 100 complete control)
# [8] = Postemergence, 62 g ai/ha, scale 0 to 100 (0 no effect, 100 complete control)
# [9] = Postemergence, 125 g ai/ha, scale 0 to 100, 0 no effect, 100 complete control
# [10] = 31 g ai/ha, scale 0 to 100 (0 no effect, 100 complete control)
# [11] = 62 g ai/ha, scale 0 to 100 (0 no effect, 100 complete control)
# [12] = 125 g ai/ha, scale 0 to 100, 0 no effect, 100 complete control
# [13] = Postemergence, 16 g ai/ha, scale 0 to 100
# [14] = Preemergence, 16 g ai/ha, scale 0 to 100, 0 no effect, 100 complete control
# [15] = Preemergence, 31 g ai/ha, scale 0 to 100, 0 no effect, 100 complete control
# [16] = Preemergence, 62 g ai/ha, scale 0 to 100
# [17] = Preemergence, 125 g ai/ha, scale 0 to 100
# [18] = 31 g ai/ha, scale of 0 to 100, 0 is no effect, 100 is complete control
# [19] = 62 g ai/ha, scale of 0 to 100, 0 is no effect, 100 is complete control
# [20] = 31 g ai/ha, scale 0 (no effect) to 100 (complete control)
smiles,measurement,setting,value
Cc1nn(-c2ccc(C(F)(F)F)c(F)c2)nc1Oc1ccnc(C(F)(F)F)c1 [Compound 148],"Plant response rating, Cocklebur",[1]; [7],85
same,"Plant response rating, Cocklebur",[1]; [8],98
same,"Plant response rating, Cocklebur",[1]; [9],98
same,"Plant response rating, Cocklebur","[1]; Preemergence, 31 g ai/ha, scale of 0 to 100, 0 is no effect, 100 is complete control",10
same,"Plant response rating, Barley",[2]; [10],35
same,"Plant response rating, Barley",[2]; [11],35
same,"Plant response rating, Barley",[2]; [12],40
same,"Plant response rating, Barley","[2]; 250 g ai/ha, scale 0 to 100",45
same,Plant response rating: Blackgrass,[3]; [7],15
same,Plant response rating: Blackgrass,[3]; [8],30
same,Plant response rating: Blackgrass,[3]; [9],65
same,"Plant response rating, Blackgrass",[3]; [13],10
same,"Plant response rating, Blackgrass",[3]; [14],0
same,"Plant response rating, Blackgrass",[3]; [15],10
same,"Plant response rating, Blackgrass",[3]; [16],5
same,"Plant response rating, Blackgrass",[3]; [17],5
same,"Plant response rating: Wheat, Spring",[4]; [7],10
same,"Plant response rating: Wheat, Spring",[4]; [8],20
same,"Plant response rating: Wheat, Spring",[4]; [9],25
same,"Plant response rating, Wheat, Spring",[4]; [13],10
same,"Plant response rating, Wheat, Spring",[4]; [14],0
same,"Plant response rating, Wheat, Spring",[4]; [15],0
same,"Plant response rating, Wheat, Spring",[4]; [16],0
same,"Plant response rating, Wheat, Spring",[4]; [17],5
CCc1nn(-c2ccc(F)cc2)nc1Cc1ccnc(C(F)(F)F)c1 [Compound 154],"Plant response rating, Barnyardgrass",Barnyardgrass [5]; [10],15
same,"Plant response rating, Barnyardgrass",Barnyardgrass [5]; [11],25
same,"Plant response rating, Barnyardgrass","Barnyardgrass [5]; 250 g ai/ha, scale 0 to 100",40
same,"Plant response rating, Oilseed Rape",Oilseed Rape; [10],80
same,"Plant response rating, Oilseed Rape",Oilseed Rape; [11],90
same,"Plant response rating, Oilseed Rape","Oilseed Rape; 250 g ai/ha, scale 0 to 100",95
same,"Plant response rating, Barnyardgrass",Barnyardgrass [6]; [18],45
same,"Plant response rating, Barnyardgrass",Barnyardgrass [6]; [19],90
same,"Plant response rating, Barnyardgrass",Barnyardgrass [6]; [12],90
FCc1nn(-c2ccc(F)cc2)nc1Oc1ccnc(C(F)(F)F)c1 [Compound 160],"Plant response rating, Barnyardgrass",Barnyardgrass [5]; [10],20
same,"Plant response rating, Barnyardgrass",Barnyardgrass [5]; [11],30
same,"Plant response rating, Oilseed Rape",Oilseed Rape; [10],95
same,"Plant response rating, Oilseed Rape",Oilseed Rape; [11],95
same,"Plant response rating, Barnyardgrass","Barnyardgrass [6]; 16 g ai/ha, scale 0 (no effect) to 100 (complete control)",5
same,"Plant response rating, Barnyardgrass",Barnyardgrass [6]; [18],35
same,"Plant response rating, Barnyardgrass",Barnyardgrass [6]; [19],90
same,"Plant response rating, Barnyardgrass",Barnyardgrass [6]; [12],100
CCOCc1nn(-c2ccc(F)cc2)nc1Oc1ccnc(C(F)(F)F)c1 [Compound 163],"Plant response rating, Barnyardgrass",Barnyardgrass [6]; [18],10
same,"Plant response rating, Barnyardgrass",Barnyardgrass [6]; [19],25
same,"Plant response rating, Barnyardgrass",Barnyardgrass [6]; [12],75
"CCOc1nn(-c2ccc(C(F)(F)F)cc2)nc1Cc1ccnc(C(F)(F)F)c1 [Compound 164, 4-[[5-ethoxy-2-[4-(trifluoromethyl)phenyl]-2H-1,2,3-triazol-4-yl]methyl]-2-(trifluoromethyl)pyridine]","Plant response rating, Barnyardgrass",Barnyardgrass [5]; [10],5
same,"Plant response rating, Barnyardgrass",Barnyardgrass [5]; [11],10
same,"Plant response rating, Barnyardgrass","Barnyardgrass [5]; 250 g ai/ha, scale 0 to 100",10
same,"Plant response rating, Oilseed Rape",Oilseed Rape; [10],5
same,"Plant response rating, Oilseed Rape",Oilseed Rape; [11],5
same,"Plant response rating, Oilseed Rape","Oilseed Rape; 250 g ai/ha, scale 0 to 100",25
same,"Plant response rating, Barnyardgrass",Barnyardgrass [6]; [20],5
same,"Plant response rating, Barnyardgrass",Barnyardgrass [6]; [19],15
same,"Plant response rating, Barnyardgrass",Barnyardgrass [6]; [12],25
CCCc1nn(-c2ccc(F)cc2)nc1Oc1ccnc(C(F)(F)F)c1 [Compound 168],"Plant response rating, Barnyardgrass",Barnyardgrass [5]; [10],40
same,"Plant response rating, Barnyardgrass",Barnyardgrass [5]; [11],75
same,"Plant response rating, Barnyardgrass","Barnyardgrass [5]; 250 g ai/ha, scale 0 to 100",95
same,"Plant response rating, Oilseed Rape",Oilseed Rape; [11],70
same,"Plant response rating, Barnyardgrass",Barnyardgrass [6]; [20],75
same,"Plant response rating, Barnyardgrass",Barnyardgrass [6]; [19],100
same,"Plant response rating, Barnyardgrass",Barnyardgrass [6]; [12],100
